PMC10101059, “Rational Design of Stapled Antimicrobial Peptides to Enhance Stability and In Vivo Potency against Polymicrobial Sepsis” (Microbiology Spectrum, 2023)
In brackets after ≈: the same amount, converted by molar mass. Bridge positions count the residues as written; N and C are the ends. Square brackets hold non-standard residues; d marks the D form. Peptide text beside a SMILES is read from it. R5 = C=CCCC[C@@](C)(N)C(=O)O

Columns and labels:
Acinetobacter baumannii = experiment: microbe, parasite or virus in culture; type: cell-based
Method: The antimicrobial assay was performed according to a modified National Committee for Clinical Laboratory Standards (NCCLS) protocol ([41], [42]). Briefly, 5 × 10^5 CFU/mL bacterial cells were treated with various peptide concentrations and incubated at 37 ± 2°C for 16 to 20 h. The lowest concentration with clear wells was recorded as the MIC for each test molecule. The clear wells were further plated in Mueller-Hinton agar (MHA) plates, followed by incubation overnight at 37 ± 2°C. After plating, the lowest concentration at which no growth was observed was recorded as the MBC. For the serum sensitivity assay, the antimicrobial activity of the peptides was tested in medium containing 50% human serum ([43], [44]). The antimicrobial assay was performed in the presence of physiological ions and glucose. The test media were supplemented with MgCl2 (1 mM), CaCl2 (2 mM), NaCl (150 mM), KCl (4.5 mM), NH4Cl (6 μM) ([45], [46]), or glucose (0.2%) ([47]), followed by routine antimicrobial assay as described previously. For the pH sensitivity assay, the antimicrobial assay was performed in media adjusted to pH values ranging from 4 to 12. To estimate the effects of temperature on antimicrobial activity, the peptide was incubated for 1 h at temperatures ranging from 40 to 100°C ([48]), followed by the antimicrobial assay as described above.

Staphylococcus aureus = type: cell-based
Method: The antimicrobial assay was performed according to a modified National Committee for Clinical Laboratory Standards (NCCLS) protocol ([41], [42]). Briefly, 5 × 10^5 CFU/mL bacterial cells were treated with various peptide concentrations and incubated at 37 ± 2°C for 16 to 20 h. The lowest concentration with clear wells was recorded as the MIC for each test molecule. The clear wells were further plated in Mueller-Hinton agar (MHA) plates, followed by incubation overnight at 37 ± 2°C. After plating, the lowest concentration at which no growth was observed was recorded as the MBC. For the serum sensitivity assay, the antimicrobial activity of the peptides was tested in medium containing 50% human serum ([43], [44]).

human red blood cells = type: cell-based
Method: The hemolytic assay was performed after approval from the institutional ethics committee (Academia Sinica Institutional Review Board [IRB]; ID no. AS-IRB02-111075). Blood was collected from healthy humans, and 50 μL of a 2% blood cell suspension in normal saline was treated with an equal volume of peptide at different concentrations. The mixture was then incubated at 37 ± 2°C for 1 h. Next, the cell suspension was centrifuged at 1,000 × g for 10 min. Percent hemolysis was estimated by the absorbance of treated and control supernatant samples at 540 nm ([23], [44]).

NDM1 K. pneumoniae = experiment: microbe, parasite or virus in culture; type: cell-based, Klebsiella pneumoniae
MDR A. baumannii 2997 = experiment: Checkerboard microdilution assay (FICI); type: cell-based, Acinetobacter baumannii
Method: (§1) The FICI was measured using a standard checkerboard microdilution assay ([57]). Two-fold dilutions of antibiotics were made across the x axis, and two-fold peptide dilutions were made across the y axis. Next, bacteria were added at 5 × 10^5 CFU/well (A. baumannii), followed by incubation at 37 ± 2°C for 16 to 20 h. FIC indices were calculated according to the following equations: FICI = FIC1 + FIC2; FIC1 = (MIC12 combined)/MIC1; FIC2 = (MIC12 combined)/MIC2. The combined efficacy was estimated as follows: FICI ≤ 0.5, synergistic; 0.5 to 1, additive; 1 to 2, indifferent; ≥2, antagonistic.

MDR A. baumannii 1033 = experiment: Checkerboard microdilution assay (FICI); type: cell-based, Acinetobacter baumannii
Method: as §1

MDR A. baumannii 3618 = experiment: Checkerboard microdilution assay (FICI); type: cell-based, Acinetobacter baumannii
Method: as §1

MDR A. baumannii 2998 = experiment: Checkerboard microdilution assay (FICI); type: cell-based, Acinetobacter baumannii
Method: as §1

MDR A. baumannii 2088 = experiment: Checkerboard microdilution assay (FICI); type: cell-based, Acinetobacter baumannii
Method: as §1

P. aeruginosae = experiment: microbe, parasite or virus in culture; type: cell-based, Pseudomonas aeruginosa
E. aerogenes = experiment: microbe, parasite or virus in culture; type: cell-based, Enterobacter aerogenes
MDR A. baumannii 14B001 = experiment: microbe, parasite or virus in culture; type: cell-based, Acinetobacter baumannii
Method: as §1

MDR A. baumannii 1702 = experiment: microbe, parasite or virus in culture; type: cell-based, Acinetobacter baumannii
Method: as §1

MDR A. baumannii 921 = experiment: microbe, parasite or virus in culture; type: cell-based, Acinetobacter baumannii
Method: as §1

MDR A. baumannii 2962 = experiment: microbe, parasite or virus in culture; type: cell-based, Acinetobacter baumannii
Method: as §1

MDR A. baumannii 1019 = experiment: microbe, parasite or virus in culture; type: cell-based, Acinetobacter baumannii
Method: as §1

MDR A. baumannii 1607 = experiment: microbe, parasite or virus in culture; type: cell-based, Acinetobacter baumannii
Method: as §1

MDR A. baumannii 2982 = experiment: microbe, parasite or virus in culture; type: cell-based, Acinetobacter baumannii
Method: as §1

S enterica = experiment: Checkerboard microdilution assay (FICI); type: cell-based, Salmonella enterica
E. coli = experiment: microbe, parasite or virus in culture; type: cell-based, Escherichia coli
[1] = MIC of each agent in combination, TP4-3 and D
[2] = Acinetobacter baumannii, read-out: Single drug treatment MIC

`CC[C@H](C)[C@H](NC(=O)[C@@H](NC(=O)[C@@H](NC(=O)[C@@H](N)Cc1ccccc1)[C@@H](C)CC)[C@@H](C)CC)C(=O)N[C@@H](CCCCN)C(=O)N[C@@H](CCCCN)C(=O)N[C@@H](CO)C(=O)NCC(=O)NCC(=O)N[C@@H](CC(C)C)C(=O)N[C@@H](Cc1ccccc1)C(=O)N[C@@H](CCCCN)C(=O)N[C@@H](CCCCN)C(=O)N[C@@H](CCCCN)C(=O)N[C@@H](C)C(=O)NCC(=O)N[C@@H](C)C(=O)N[C@]1(C)CCCC=CCCC[C@](C)(C(=O)N[C@H](C(=O)N[C@@H](CCCCN)C(=O)N[C@@H](CCCCN)C(=O)O)[C@@H](C)CC)NC(=O)[C@H](CCCCN)NC(=O)[C@H](CCCCN)NC(=O)[C@H](CCCCN)NC1=O` [TP4-1] (H-FIIIKKSGGLFKKKAGA[R5]KKK[R5]IKK-OH; staple 18-22; N-terminus and C-terminus assumed) was tested, and the MBC (Acinetobacter baumannii; read-out: MBC) was over 25 µM, the MIC (Acinetobacter baumannii; read-out: MIC) was over 25 µM and the MBC (Staphylococcus aureus) was over 25 µM. The MIC (Staphylococcus aureus) was over 25 µM and the 15% hemolysis concn (human red blood cells) was over 100 µM.
In the case of `C[C@H]1c2cccc(O)c2C(=O)C2=C(O)[C@]3(O)C(=O)C(C(N)=O)=C(O)[C@@H](N(C)C)[C@@H]3[C@@H](O)[C@@H]21` [D, doxycycline], the MIC (NDM1 K. pneumoniae; Klebsiella pneumoniae, read-out: Single drug treatment MIC) is reported as 25 µM (≈ 11.1 µg/mL), the “TP4-3 and meropenem combined MIC” value (NDM1 K. pneumoniae; [1]) is reported as 3.13 µM and the MIC (MDR A. baumannii 2997; [2]) is reported as 50 µM. For the same molecule, the “TP4-3 and meropenem combined MIC” value (MDR A. baumannii 2997; [1]) was 25 µM, the MIC (MDR A. baumannii 1033; [2]) was 50 µM and the “TP4-3 and meropenem combined MIC” value (MDR A. baumannii 1033; [1]) was 12.5 µM. For the same molecule, the MIC (MDR A. baumannii 3618; [2]) was 100 µM, the “TP4-3 and meropenem combined MIC” value (MDR A. baumannii 3618; [1]) was 25 µM and the MIC (MDR A. baumannii 2998; [2]) was 50 µM. The “TP4-3 and meropenem combined MIC” value (MDR A. baumannii 2998; [1]) was 12.5 µM, the MIC (MDR A. baumannii 2088; [2]) was 100 µM and the “TP4-3 and meropenem combined MIC” value (MDR A. baumannii 2088; [1]) was 12.5 µM. The “TP4-3 and meropenem combined MIC” value (P. aeruginosae; [1]) was 12.5 µM, the MIC (P. aeruginosae; Pseudomonas aeruginosa, read-out: Single drug treatment MIC) was 6.25 µM (≈ 2.78 µg/mL) and the MIC (E. aerogenes; Klebsiella aerogenes, read-out: Single drug treatment MIC) was 3.13 µM (≈ 1.39 µg/mL). For the same molecule, the “TP4-3 and meropenem combined MIC” value (E. aerogenes; [1]) was 0.78 µM, the MIC (MDR A. baumannii 14B001; [2]) was 50 µM and the “TP4-3 and meropenem combined MIC” value (MDR A. baumannii 14B001; [1]) was 50 µM. For the same molecule, the MIC (MDR A. baumannii 1702; [2]) was 50 µM, the “TP4-3 and meropenem combined MIC” value (MDR A. baumannii 1702; [1]) was 12.5 µM and the MIC (MDR A. baumannii 921; [2]) was 200 µM. For the same molecule, the “TP4-3 and meropenem combined MIC” value (MDR A. baumannii 921; [1]) was 25 µM, the MIC (MDR A. baumannii 2962; [2]) was 100 µM and the “TP4-3 and meropenem combined MIC” value (MDR A. baumannii 2962; [1]) was 25 µM. The MIC (MDR A. baumannii 1019; [2]) was 100 µM, the “TP4-3 and meropenem combined MIC” value (MDR A. baumannii 1019; [1]) was 12.5 µM and the MIC (MDR A. baumannii 1607; [2]) was 100 µM. For the same molecule, the “TP4-3 and meropenem combined MIC” value (MDR A. baumannii 1607; [1]) was 25 µM, the MIC (MDR A. baumannii 2982; [2]) was 50 µM and the “TP4-3 and meropenem combined MIC” value (MDR A. baumannii 2982; [1]) was 25 µM. For the same molecule, the “TP4-3 and meropenem combined MIC” value (S enterica; [1]) was 1.56 µM, the MIC (S enterica; Salmonella enterica, read-out: Single drug treatment MIC) was 6.25 µM and the MIC (E. coli; Escherichia coli, read-out: Single drug treatment MIC) was 50 µM (≈ 22.2 µg/mL). The “TP4-3 and meropenem combined MIC” value (E. coli; [1]) was 0.78 µM.
